# How the values were obtained:
# HL60 cells = experiment: Promotion of macrophage phagocytosis of tumor cells (flow cytometry); format: cell-based; settings: CFSE-labeled HL60 cells, human macrophages
# Protocol: The ability of the anti-CD47 antibodies to promote the phagocytosis of tumor cells by macrophages having SIRPα on the cell surface was determined based on flow cytometry.
# Monocytes were isolated from human peripheral blood mononuclear cells (PBMC, Sailybio, Cat. No. 190056) using a monocyte isolation kit ([…], Cat. No. 19058), plated into a 24-well plate (Greiner bio-one, Cat. No. 662-160) at […] cells per well, and induced under 100 ng/mL stimulating factor M-CSF (R&D Systems, Cat. No. 216-MC-010) for 7 days to form macrophages. 1×10^6 target cells HL60 (Shanghai Institute of Biochemistry and Cell Biology, Chinese Academy of Sciences, Cat. No. TCHu23) were suspended in […] CFSE (BD Biosciences, Cat. No. 565082) fluorescent dye (diluted with a PBS buffer to the desired concentration), incubated in a water bath at 37° C. in the dark for 15 min, and washed with a PBS buffer to prepare CFSE-labeled HL60 cells, which were then incubated with each of 10 μg/mL and 1 μg/mL anti-CD47 antibodies (see Table 3 for chimenic antibodies, and see Table 4 for humanized antibodies) in an incubator at 37° C. with 5% CO2 for 1-2 h. The HL60 cells after the incubation were washed three times with a PBS buffer and added to the macrophages. […] The rate of phagocytosis (%) by the macrophages was determined using a flow cytometer (BD Biosciences, model: C6).
# Raji cells = experiment: Hematologic tumor mouse model of lymphoma Raji cells, survival; format: in vivo, NOD/SCID mice; settings: 10 mg/kg intraperitoneal, 21 consecutive days
# Protocol: A hematologic tumor mouse model was established using hematologic tumor Raji cells. The anti-CD47 antibodies were applied to the model for the evaluation of the pharmacodynamic activity.
# A suspension of Raji cells in a PBS buffer was prepared at a concentration of 5×10^6 cells/mL, and was injected into female NOD/SCID mice via the tail vein at 0.1 mL/mouse. […] The administration was performed by intraperitoneal injection in doses of 10 mg/kg for 21 consecutive days. The survival time of the animals was observed.
# [1] = system: human B-cell lymphoma Daudi; experiment: Subcutaneous mouse xenograft tumor of Daudi; format: in vivo, NOD-SCID mice; settings: IV D0, 3, hz14A9-2.3 1.5 mg/kg, Rituximab 3 mg/kg
# Protocol: The experimental animals were NOD-SCID mice (5-6 weeks old, male) purchased from Shanghai Lingchang Biotechnology Co., Ltd., with the production license number of SCXK (Hu) 2018-0003 and the animal certification number of 20180003014870. The housing environment was in a SPF grade. Human B-cell lymphoma Daudi cells were purchased from Cell Bank of the Chinese Academy of Sciences. Daudi cells were cultured in an incubator at 37° C. with 5% CO2 in air. Subculturing was performed twice a week, and when the cells were in a logarithmic growth phase, the cells were collected, counted, and inoculated. 1×10^7 Daudi cells were inoculated to each mouse subcutaneously, and when tumors reached the volume of about 100 mm^3, the mice were divided into groups and injected with drugs intravenously (IV) once every 3 days (Q3D) for a total of 2 times at the injection volume of 0.1 mL/10 g of body weight.
# (§1) The experimental index was to investigate the effects of the drugs on the tumor growth, and the specific index was T/C % or the tumor growth inhibition rate (TGI %, tumor growth inhibition).
# (§2) Tumor diameters were measured twice a week with a vernier caliper and tumor volume (V) was calculated according to the following formula: […]
# (§3) where a and b represent length and width, respectively.
# (§4) T/C (%)=(T−T0)/(C−C0)×100,
# (§5) where T and C are the tumor volumes of animals at the end of the experiment in the test group and the negative control group, respectively; T0 and C0 are the tumor volumes of animals at the beginning of the experiment in the test group and the negative control group, respectively.
# (§6) If the volume of tumor shrinks compared with its initial volume, i.e., T<T0 […], it is defined as partial regression (PR) of tumor; if the tumor completely disappears, it is defined as complete regression (CR) of tumor.
# At the end of the experiment (D24), the animals were sacrificed by CO2 anesthesia and dissected to give the tumors. The tumors were photographed.
# [2] = system: human acute myeloblastic leukemia MOLM-16; experiment: Subcutaneous mouse xenograft tumor of MOLM-16; format: in vivo
# Protocol: The experimental animals were NOD-SCID mice (5-6 weeks old, female) purchased from Beijing Huafukang Biotechnology Co., Ltd., with the production license number of SCXK (Jing) 2019-0008 and the animal certification number of 110322211100910838. The housing environment was in a SPF grade. Human acute myelocytic leukemia MOLM-16 cells were purchased from DSMZ. MOLM-16 cells were cultured in an incubator at 37° C. with 5% CO2 in air. Subculturing was performed twice a week, and when the cells were in a logarithmic growth phase, the cells were collected, counted, and inoculated. 1×10^7 MOLM-16 cells were inoculated to each mouse subcutaneously, and when tumors reached the volume of 100-150 mm^3, the mice were divided into groups and injected with drugs intravenously (IV) at the administration volume of 0.1 mL/10 g of body weight.
# as §1, §2, §3, §4, §5, §6
# At the end of the experiment, the animals were sacrificed by CO2 anesthesia and dissected to give the tumors. The tumors were photographed.
# [3] = Azacitadine 2.5 mg/kg IV QD × 5
compound,measurement,setting,value
"Hu5F9: the positive antibody Hu5F9, comparison anti-CD47 antibody [reference compound]",rate of phagocytosis,HL60 cells; 1 μg/mL antibody,67.5%
same,rate of phagocytosis,HL60 cells; 10 μg/mL antibody,72.35%
same,day on which all the animals in the group died,Raji cells,30 days
same,median survival time,Raji cells,18.5 days
Rituximab: anti-CD20 monoclonal antibody [reference compound],T/C(%) D24,[1],64%
same,Tumor growth inhibition (%) D24,[1],36%
same,Partial regression (number of tumors),"[1]; hIgG4 4.5 mg/kg, 6 mice per group (hIgG4 10)",0
"Nc1ncn([C@@H]2O[C@H](CO)[C@@H](O)[C@H]2O)c(=O)n1 [Azacitadine, 4-amino-1-β-D-ribofuranosyl-1,3,5-triazin-2(1H)-one]",T/C(%) D12,[2]; Azacitadine 1 mg/kg IV QD × 5,50%
same,Tumor growth inhibition (%) D12,[2]; Azacitadine 1 mg/kg IV QD × 5,50%
same,T/C(%) D12,[2]; [3],18%
same,Tumor growth inhibition (%) D12,[2]; [3],82%
same,mean tumor volume D17,[2]; azacitadine 1 mg/kg IV QD×5 monotherapy,3729.5 ± 436.4 mm^3
same,mean tumor volume D17,[2]; azacitadine 2.5 mg/kg IV QD×5 monotherapy,1920.7 ± 375.6 mm^3

# From patent US20240269278A1, “ANTI-CD47 ANTIBODY FOR COMBINED TREATMENT OF BLOOD TUMOR” (Nanjing Shunxin Pharmaceuticals Co., Ltd. of Chiatai …, priority 2021, published 2024)
